Data on 3 molecules can be found in patent publication US20090023666A1, “Modulators of Hypoxia Inducible Factor-1 and Related Uses” (priority 2006, published 2009).

“Also recorded” adds a separate entry of the source. Like-named read-outs stand apart in the source and are kept apart here.

In series [1] the test system is MCF-7. In words: Anti-proliferative activity, MCF-7. In kind it is cell-based. Particulars: Homo sapiens. The protocol: (§1) FIG. 8 is a graph depicting the mRNA levels of α-1 and α-3 isoforms quantitated by real time RT-PCR (TaqMan) using fluorescent labeled TaqMan probes. Anti-proliferation (IC50 values) activity of BNC4 on indicated cell lines was determined by MTS assay. Total alpha levels (al+a3) were plotted against (1/IC50) X100 values.

For series [2], the system named is HCT116. The series is described as follows: Anti-proliferative activity, HCT116. In kind it is cell-based. Particulars: Homo sapiens. The protocol: as §1
Series [3] concerns 786-O. The series is described as follows: Anti-proliferative activity, 786-O. In kind it is cell-based. Particulars: Homo sapiens. As to the method: as §1
Series [4] has as its system IGR-OV1. In words: Anti-proliferative activity, IGR-OV1. Format: cell-based. The note with it: Homo sapiens. The protocol:
as §1

Series [5] deals with C33A. In words: Anti-proliferative activity, C33A. In kind it is cell-based. The note with it: Homo sapiens, C-33-A, read-out: Anti-Proliferative activity IC50. As to the method: as §1
Series [6] deals with Panc-1 (PANC). The series is described as follows: Anti-proliferative activity (APA), Panc-1. Particulars: Homo sapiens. In kind it is cell-based. The protocol:
as §1

Series [7] has as its system A549 sentinel line. In words: Hypoxic stress response induced by cytotoxic agents in A549 sentinel line. In kind it is cell-based. Particulars: in the presence of Gemcitabine. The source says:
FIGS. 7A-7E are graphs depicting the stress response of A549 Sentinel Line induced by treatment with Gemcitabine (FIG. 7A) or Gemcitabine in the presence of indicated compound (FIG. 7B-7D). Untreated (control) sample is shown in shadow. […] Similar results can be achieved for other chemotherapeutic agents which induce hypoxic stress, such as paclitaxel, carboplatin, and mitoxantrone.
Similar results were obtained with carboplatin (not shown).

The subject of series [8] is Panc-1 tumors. The series is described as follows: In vivo activity against Panc-1 human pancreatic xenograft. Set-up: species or system nude mice. Particulars: SC, CI. As to the method:
Panc-1 tumors were injected subcutaneously (sc) into the flanks of male nude mice. After the tumors reached 60 mg in size, osmotic pumps (model 2002, Alzet Inc., flow rate 0.5 μl/hr) containing 15 mg/ml of BP244 were implanted sc on the opposite sides of the mice. The control animals received pumps containing vehicle (10% captisol, Cyclex Inc.). The mice treated with standard chemotherapy agent received intra-peritoneal injections of Gemcitabine at 40 mg/kg every 3 days for 4 treatments (q3d×4). The experiment was terminated when the control group tumor size reached an average of about 1 gram. Upon termination, the mice were weighed, sacrificed and their tumors excised. The tumors were weighed and the mean tumor weight per group was calculated.
A titration experiment was first performed on BP244 to determine its minimum effective dose against Panc-1 human pancreatic xenograft in nude mice. BP244 (sc, osmotic pumps) was first tested at 15, 10 and 5 mg/ml using Alzet pumps as in previous experiments. Gemcitabine (40 mg/kg; q3d×4, i.p.) was also included in the experiment as a comparison. […]

For series [9], the system named is Na-K-ATPase. In words: Na-K-ATPase enzyme assay (inorganic phosphate liberated from ATP), pig brain. Format: biochemical. Particulars: pig brain. The protocol:
Compounds were tested for their activity on Na-K-ATPase enzyme in an in vitro enzyme assay. The ATPase activity was assayed as the amount of inorganic phosphate liberated from ATP by Dog Kidney or Porcine cerebral cortex Na-K-ATPase.

The subject of series [10] is Caki-1 tumors. In words: In vivo activity against renal cancer cell line Caki-1 xenograft. Particulars: Caki-1 bearing nude mice. The protocol: Female nude mice (nu/nu) between 5 and 6 weeks of age weighing approximately 20 g were implanted subcutaneously (s.c.) by trocar with fragments of human tumors harvested from s.c. grown tumors in nude mice hosts. When the tumors were approximately 60-75 mg in size (about 10-15 days following inoculation), the animals were pair-matched into treatment and control groups. Each group contained 8-10 mice. The administration of drugs or controls began on the day the animals were pair-matched (Day 1). Pumps (Alzet® Model 2002) with a flow rate of 0.5 μl/hr were implanted s.c. between the shoulder blades of each mice. Mice were weighed and tumor measurements were obtained using calipers twice weekly, starting Day 1. These tumor measurements were converted to mg tumor weight by standard formula, (W^2XL)/2. The experiment was terminated when the control group tumor size reached an average of about 1 gram. Upon termination, the mice were weighed, sacrificed and their tumors excised. The tumors were weighed and the mean tumor weight per group was calculated.

In series [11] the test system is HIF-1α. In words: Inhibition of hypoxia-mediated HIF-1α induction (immunoblotting). Format: cell-based, human. The note with it: Caki-1 or Panc-1 cells under hypoxia. For orientation: A western blot detects proteins with antibodies after separation by electrophoresis.
Series [12] deals with HIF-1α. In words: Inhibition of HIF-1α induced under normoxia by PHD inhibitor L-mimosone (Western blotting). Format: cell-based. The note with it: Hep3B cells, 200 μM L-mimosone 18 hours. As to the method:
Abundance of HIF1α and β-actin was determined by Western blotting.

For series [13] the following is noted: cited from earlier work.
Where [14] appears, read: MCF7, read-out: Anti-Proliferative activity IC50.
Where [15] appears, read: HCT-116, read-out: Anti-Proliferative activity IC50.
Where [16] appears, read: 786-0, read-out: Anti-Proliferative activity IC50.
Where [17] appears, read: IGROV-1, read-out: Anti-Proliferative activity IC50.
The mark [18] stands for this setting: PANC-1, read-out: Anti-Proliferative activity IC50.

For the molecule `C[C@]12CC/C(=N\OCCN3CCCCC3)C=C1CC[C@@H]1[C@@H]2CC[C@]2(C)[C@@H](c3ccc(=O)oc3)CC[C@]12O` [BP228], the half-inhibitory concentration (IC50) (commonly the midpoint of a concentration-inhibition curve) stood at 19.8 nM in series [1] (setting [14]); 6.4 nM in series [2] (setting [15]); 8.9 nM in series [3] (setting [16]); 31.9 nM in series [4] (setting [17]); 7.2 nM in series [5]; 8.1 nM in [6] (setting [18]). Further, the “stress response in A549 sentinel line induced by Gemcitabine” value (“stress response” below) in series [7] was “can inhibit the stress response”. For the same molecule, the “% TGI (d24)” value is reported as 66% in series [8] (10 mg/ml) and 79% in series [8] (15 mg/ml). In addition, the “% Wt Change (d24)” value in series [8] (10 mg/ml) stood at 1.97%; in series [8] (15 mg/ml), 4.88%. For the same molecule, the “Av. Tumor Weight” value is given as 488.0 mg in series [8] (10 mg/ml) and 327.0 mg in [8] (15 mg/ml).
Take `C[C@@H]1O[C@@H](O[C@@H]2C=C3CC[C@@H]4[C@H](CC[C@]5(C)[C@@H](c6ccc(=O)oc6)CC[C@]45O)[C@@]3(C)CC2)[C@H](O)[C@H](O)[C@H]1N` [BP244]: the IC50 in series [1] (setting [14]) was 8.2 nM; in series [2] (setting [15]) it was 5.1 nM; in series [3] (setting [16]) it was 8 nM; in series [4] (setting [17]), 12.1 nM; in series [5], 5.1 nM; in series [6] (setting [18]), 6.6 nM. In series [9] (FIG. 9, read-out: IC50, Na-K-ATPase), the IC50 turned out to be 98 µM. Besides, the “stress response” value in [7] is “can inhibit the stress response”. Also, the “activity on Na-K-ATPase relative to BP228” value in [9] is reported as “twice as active as BP228”. For the same molecule, in series [10] (15 mg/ml pump), the adverse effects result was “without any adverse effects”. Besides, the “tumor growth inhibition (TGI)” value in series [10] (15 mg/ml, s.c. Alzet pump 0.5 μl/hr) was 83%. For the same molecule, the “% TGI (d24)” value in series [8] (5 mg/ml) was 71%; in series [8] (10 mg/ml), 98%; in [8] (15 mg/ml), 102%. The “% Wt Change (d24)” value in series [8] (5 mg/ml) is recorded as −4.63%; in series [8] (10 mg/ml) it was 0.93%; in series [8] (15 mg/ml), 5.26%. The “Av. Tumor Weight” value in [8] (5 mg/ml) is 524.4 mg; in [8] (10 mg/ml), 107.3 mg; in series [8] (15 mg/ml), 44.2 mg.
Take `C[C@@H]1O[C@@H](O[C@@H]2C=C3CC[C@@H]4[C@H](CC[C@]5(C)[C@@H](c6ccc(=O)oc6)CC[C@]45O)[C@@]3(C)CC2)[C@H](O)[C@H](O)[C@H]1O` [BNC4, proscillaridin, reference compound]: the “potency in inhibiting HIF-1α expression relative to BNC1” value in series [11] is “about 10 times”. Besides, the “HIF-1α accumulation by L-mimosone” value in series [12] is given as “blocks HIF-1α induction; also recorded: eliminated HIF-1α accumulation by L-mimosone”. Further, the IC50 in series [1] (MCF7, MCF-7, Breast (ER+), read-out: Anti-Proliferative activity IC50) was determined as 8.4 nM; in [2] (HCT-116, HCT116, Colon, read-out: Anti-Proliferative activity IC50), 8.1 nM; in series [3] (786-0, 786-O, Renal, read-out: Anti-Proliferative activity IC50) it was 8.4 nM; in series [4] (IGROV-1, IGR-OV1, Ovarian, read-out: Anti-Proliferative activity IC50), 12.3 nM; in [5] (C33A, Cervical) it was 13.6 nM; in series [6] (PANC-1, PANC, Pancreatic, read-out: Anti-Proliferative activity IC50) it was 3.8 nM. Besides, the “stress response” value in series [7] is “can inhibit the stress response”. In addition, in [8] (15 mg/ml), the “% TGI (d24)” value was 87%. Further, in series [8] (15 mg/ml), the “% Wt Change (d24)” value is −2.69%. The “Av. Tumor Weight” value in series [8] (15 mg/ml) was found to be 243.9 mg. Also, in series [13] (human, according to the literature), the “plasma half-life in human” value is reported as “about 40 hours”. For the same molecule, in [13] (in vivo), the max. plasma concentration result is “about 0.1 μg/mL”.
